Measured values: PMC9475448, “What a difference a methylene makes: replacing Glu with Asp or Aad in the Lys-urea-Glu pharmacophore of PSMA-targeting radioligands to reduce kidney and salivary gland uptake” (Theranostics, 2022)

Assays:
[1] = biological target: T1, PSMA (Homo sapiens, UniProt Q04609); design: method as in PMID 30251544; settings: same assay conditions, reported previously; cited from earlier work
T1 construct: LNCaP cells (400,000/well) were plated onto a 24-well poly-D-lysine coated plate for 48 h; endogenous in cells; host or cells: LNCaP prostate cancer cells
T1 sequence (Q04609 whole entry): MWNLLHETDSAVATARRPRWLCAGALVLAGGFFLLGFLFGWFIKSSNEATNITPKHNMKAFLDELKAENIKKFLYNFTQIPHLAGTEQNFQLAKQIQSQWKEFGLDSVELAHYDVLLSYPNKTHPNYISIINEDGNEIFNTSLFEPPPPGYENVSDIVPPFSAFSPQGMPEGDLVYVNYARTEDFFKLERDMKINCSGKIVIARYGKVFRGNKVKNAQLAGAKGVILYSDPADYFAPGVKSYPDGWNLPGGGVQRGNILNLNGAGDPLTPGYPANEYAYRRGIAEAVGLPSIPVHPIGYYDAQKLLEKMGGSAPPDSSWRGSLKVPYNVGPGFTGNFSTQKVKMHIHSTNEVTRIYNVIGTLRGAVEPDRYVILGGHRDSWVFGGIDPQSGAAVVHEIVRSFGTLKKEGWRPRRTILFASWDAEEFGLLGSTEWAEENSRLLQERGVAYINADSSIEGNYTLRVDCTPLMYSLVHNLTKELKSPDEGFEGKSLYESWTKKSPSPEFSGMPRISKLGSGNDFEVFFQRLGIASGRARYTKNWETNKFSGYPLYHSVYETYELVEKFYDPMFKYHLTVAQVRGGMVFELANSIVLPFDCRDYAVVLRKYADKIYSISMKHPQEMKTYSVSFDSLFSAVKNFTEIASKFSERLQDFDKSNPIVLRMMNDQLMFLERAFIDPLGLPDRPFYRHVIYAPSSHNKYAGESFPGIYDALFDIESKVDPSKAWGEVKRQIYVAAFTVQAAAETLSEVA

[2] = tested on: mouse kidneys and salivary glands; design: method as in PMID 32859704; settings: 1h post-injection; cited from earlier work
[3] = tested on: mouse kidneys and salivary glands; assay: Biodistribution of previously reported [68Ga]Ga-HTK03041 in mice; assay type: in vivo; settings: 1h post-injection, unreported data of the earlier study

Salivary gland uptake [3] [%IA/g]	SMILES	Ki [1] [pM]	Kidney uptake [2] [%IA/g]
	O=C([O-])CN1CCN(CC(=O)[O-])CCN(CC(=O)NCC2CCC(C(=O)N[C@@H](Cc3ccc4ccccc4c3)C(=O)NCCCC[C@H](NC(=O)N[C@@H](CCC(=O)O)C(=O)O)C(=O)O)CC2)CCN(CC(=O)[O-])CC1.[Lu+3] (stereo partly drawn) [Lu-PSMA-617]	240 ± 60	
4.99±0.88	O=C([O-])CN1CCN(CC(=O)[O-])CCN(CC(=O)NCC2CCC(C(=O)NC(Cc3c4ccccc4cc4ccccc34)C(=O)NCCCCC(NC(=O)NC(CCC(=O)O)C(=O)O)C(=O)O)CC2)CCN(CC(=O)[O-])CC1.[68Ga+3] (stereo not drawn) [[^68Ga]Ga-HTK03041]		170±26.4
